Test results published in ChEMBL document CHEMBL5465560, “Selectivity Literature for EUbOPEN Chemogenomic Library” (2024).

Legend:
[1] = biological target: T1, Dual specificity mitogen-activated protein kinase kinase 4 (Homo sapiens) (UniProt P45985); test: Selectivity interaction (Ambit KINOMEscan and KiNATiv profiling in Jurkat cells) EUB0000090b MAP2K4; assay type: cell-based; details: at 1 µM
T1 sequence (whole entry): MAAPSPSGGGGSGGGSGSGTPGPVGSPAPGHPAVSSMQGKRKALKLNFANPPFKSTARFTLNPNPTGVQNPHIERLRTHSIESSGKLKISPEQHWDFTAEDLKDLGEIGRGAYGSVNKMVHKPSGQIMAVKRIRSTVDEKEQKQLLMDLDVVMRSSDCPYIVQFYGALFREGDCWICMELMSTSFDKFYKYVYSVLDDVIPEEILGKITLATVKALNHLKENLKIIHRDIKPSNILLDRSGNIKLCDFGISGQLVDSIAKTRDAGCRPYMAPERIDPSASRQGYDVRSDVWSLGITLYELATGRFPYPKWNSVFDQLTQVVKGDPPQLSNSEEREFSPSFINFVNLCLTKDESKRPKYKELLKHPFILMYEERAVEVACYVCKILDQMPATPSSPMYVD

[2] = biological target: Tyrosine-protein kinase ABL2 (Homo sapiens, UniProt P42684); test: Selectivity interaction (SelectScreen profiling (Invitrogen)) EUB0000607a ABL2; details: at 2 µM
Sequence of Tyrosine-protein kinase ABL2 (P42684 whole entry): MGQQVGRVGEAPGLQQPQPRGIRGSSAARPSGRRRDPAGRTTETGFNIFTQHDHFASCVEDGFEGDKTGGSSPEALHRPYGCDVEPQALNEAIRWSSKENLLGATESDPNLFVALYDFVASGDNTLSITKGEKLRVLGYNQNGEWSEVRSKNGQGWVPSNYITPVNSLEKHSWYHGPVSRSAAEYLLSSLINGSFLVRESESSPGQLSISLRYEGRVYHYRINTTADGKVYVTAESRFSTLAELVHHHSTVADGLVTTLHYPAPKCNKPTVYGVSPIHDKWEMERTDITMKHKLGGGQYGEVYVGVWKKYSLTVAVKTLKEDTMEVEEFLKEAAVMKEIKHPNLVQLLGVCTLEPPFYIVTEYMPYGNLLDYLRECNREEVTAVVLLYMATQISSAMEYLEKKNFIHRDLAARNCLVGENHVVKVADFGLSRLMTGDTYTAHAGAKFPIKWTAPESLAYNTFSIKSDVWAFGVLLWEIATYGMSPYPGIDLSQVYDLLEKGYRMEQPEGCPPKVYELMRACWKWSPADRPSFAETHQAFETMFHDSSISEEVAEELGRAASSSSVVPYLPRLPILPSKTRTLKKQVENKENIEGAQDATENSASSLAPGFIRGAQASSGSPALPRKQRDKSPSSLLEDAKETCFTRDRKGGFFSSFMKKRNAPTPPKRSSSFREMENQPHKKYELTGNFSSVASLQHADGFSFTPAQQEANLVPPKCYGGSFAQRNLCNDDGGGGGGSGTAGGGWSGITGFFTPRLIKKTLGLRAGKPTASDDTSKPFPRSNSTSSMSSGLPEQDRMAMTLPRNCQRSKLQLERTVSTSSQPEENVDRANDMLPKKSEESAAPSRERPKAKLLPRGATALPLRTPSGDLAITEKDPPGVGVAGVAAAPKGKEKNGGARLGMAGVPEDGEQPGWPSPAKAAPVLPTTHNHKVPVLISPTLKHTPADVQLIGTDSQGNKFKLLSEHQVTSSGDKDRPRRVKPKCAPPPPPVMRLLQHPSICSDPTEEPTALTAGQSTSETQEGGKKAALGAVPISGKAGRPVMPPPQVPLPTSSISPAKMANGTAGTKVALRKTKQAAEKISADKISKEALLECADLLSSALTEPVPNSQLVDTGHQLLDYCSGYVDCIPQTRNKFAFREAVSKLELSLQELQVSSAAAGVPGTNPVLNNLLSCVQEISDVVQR

[3] = test system: Tyrosine-protein kinase ABL1 (Homo sapiens), P00519 [Q252H]; test: Selectivity interaction (KinomeScan (DiscoverX)) EUB0000045b ABL1; details: at 10 µM
[4] = biological target: T2, Mitogen-activated protein kinase kinase kinase 5 (Homo sapiens) (UniProt Q99683); test: Selectivity interaction (ActivX KiNativ screen (kinase selectivity in THP-1 cell lysates)) EUB0000639a MAP3K5; assay type: subcellular; details: lysate, at 0.01 µM
T2 sequence (whole entry): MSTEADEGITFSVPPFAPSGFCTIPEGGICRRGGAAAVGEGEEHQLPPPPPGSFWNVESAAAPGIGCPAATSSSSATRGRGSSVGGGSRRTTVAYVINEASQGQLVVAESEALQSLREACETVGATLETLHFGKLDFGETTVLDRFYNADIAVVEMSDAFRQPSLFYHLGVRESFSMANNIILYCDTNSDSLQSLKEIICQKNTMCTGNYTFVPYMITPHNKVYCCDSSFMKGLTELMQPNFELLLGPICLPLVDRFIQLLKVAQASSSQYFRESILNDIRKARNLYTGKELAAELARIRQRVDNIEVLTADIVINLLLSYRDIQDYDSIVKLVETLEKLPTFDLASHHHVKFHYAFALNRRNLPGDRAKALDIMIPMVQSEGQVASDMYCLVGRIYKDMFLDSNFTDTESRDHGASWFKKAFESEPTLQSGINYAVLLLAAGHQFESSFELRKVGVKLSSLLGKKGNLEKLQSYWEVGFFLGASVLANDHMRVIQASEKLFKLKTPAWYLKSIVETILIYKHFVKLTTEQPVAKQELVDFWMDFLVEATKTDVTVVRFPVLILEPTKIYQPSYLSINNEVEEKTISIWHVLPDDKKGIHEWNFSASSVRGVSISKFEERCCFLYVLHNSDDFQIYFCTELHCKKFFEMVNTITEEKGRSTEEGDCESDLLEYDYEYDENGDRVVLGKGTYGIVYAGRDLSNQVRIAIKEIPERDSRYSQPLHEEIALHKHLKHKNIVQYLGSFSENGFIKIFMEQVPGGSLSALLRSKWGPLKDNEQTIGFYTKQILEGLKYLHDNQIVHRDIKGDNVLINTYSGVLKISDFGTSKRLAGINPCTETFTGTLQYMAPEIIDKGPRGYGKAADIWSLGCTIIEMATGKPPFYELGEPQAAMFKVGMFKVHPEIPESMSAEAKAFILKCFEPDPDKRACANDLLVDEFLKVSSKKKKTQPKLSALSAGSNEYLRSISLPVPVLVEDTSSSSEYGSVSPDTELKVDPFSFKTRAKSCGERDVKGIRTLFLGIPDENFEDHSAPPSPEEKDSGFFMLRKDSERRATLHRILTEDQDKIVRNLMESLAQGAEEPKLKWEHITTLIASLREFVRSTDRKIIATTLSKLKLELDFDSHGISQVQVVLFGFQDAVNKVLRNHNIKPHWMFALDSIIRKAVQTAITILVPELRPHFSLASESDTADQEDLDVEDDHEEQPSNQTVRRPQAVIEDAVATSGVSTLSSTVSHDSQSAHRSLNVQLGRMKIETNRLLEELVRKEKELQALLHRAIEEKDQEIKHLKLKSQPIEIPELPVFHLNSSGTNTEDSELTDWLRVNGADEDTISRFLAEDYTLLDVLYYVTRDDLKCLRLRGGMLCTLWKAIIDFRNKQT

[5] = Selectivity interaction (KinomeScan (DiscoverX)) EUB0000666a CDK2H; details: at 10 µM
[6] = biological target: T3, Ephrin type-B receptor 4 (Homo sapiens) (UniProt P54760); test: Selectivity interaction (Kinase panel (Z-LYTE Assay)) EUB0001632a EPHB4; details: at 10 µM
T3 sequence (whole entry): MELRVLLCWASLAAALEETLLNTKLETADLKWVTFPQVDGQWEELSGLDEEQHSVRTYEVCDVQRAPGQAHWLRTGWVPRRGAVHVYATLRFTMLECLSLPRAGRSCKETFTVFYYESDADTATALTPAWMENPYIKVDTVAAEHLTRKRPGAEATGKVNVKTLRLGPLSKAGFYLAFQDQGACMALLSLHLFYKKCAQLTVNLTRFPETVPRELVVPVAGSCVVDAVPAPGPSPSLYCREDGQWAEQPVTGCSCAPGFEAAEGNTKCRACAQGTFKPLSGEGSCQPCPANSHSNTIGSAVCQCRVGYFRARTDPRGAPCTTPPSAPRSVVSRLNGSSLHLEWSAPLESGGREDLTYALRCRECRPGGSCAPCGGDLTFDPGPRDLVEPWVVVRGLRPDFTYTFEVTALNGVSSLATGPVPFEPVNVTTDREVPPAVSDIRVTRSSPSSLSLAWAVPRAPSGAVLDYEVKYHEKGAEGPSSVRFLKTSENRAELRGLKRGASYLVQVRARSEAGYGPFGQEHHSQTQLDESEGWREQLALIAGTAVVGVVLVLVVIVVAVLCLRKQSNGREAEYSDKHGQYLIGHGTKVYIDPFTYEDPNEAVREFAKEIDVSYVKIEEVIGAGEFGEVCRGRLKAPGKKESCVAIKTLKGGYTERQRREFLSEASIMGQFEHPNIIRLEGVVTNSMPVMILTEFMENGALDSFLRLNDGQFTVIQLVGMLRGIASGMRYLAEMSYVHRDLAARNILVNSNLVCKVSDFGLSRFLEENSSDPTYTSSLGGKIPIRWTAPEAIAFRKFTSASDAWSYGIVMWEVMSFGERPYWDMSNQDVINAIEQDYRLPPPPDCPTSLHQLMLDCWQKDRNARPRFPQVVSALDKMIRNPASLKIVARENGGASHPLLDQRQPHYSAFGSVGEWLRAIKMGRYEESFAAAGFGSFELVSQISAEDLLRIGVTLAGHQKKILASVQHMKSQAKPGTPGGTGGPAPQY

## CN(C)C/C=C/C(=O)Nc1ccc(C(=O)N2CCCC(Nc3ncc(Cl)c(-c4c[nH]c5ccccc45)n3)C2)cc1 (stereo unspecified)
[1]
  % of control: 70%

## CNC(=O)Nc1ccc(-c2nc(N3CC4CCC(C3)O4)c3cnn(C4CCC5(CC4)OCCO5)c3n2)cc1
[2]
  % of inhibition: 13%

## C=CC(=O)Nc1cc(-n2c(=O)ccc3cnc4ccc(-c5ccc(NS(C)(=O)=O)cc5)cc4c32)ccc1C
[3]
  % of control: 75%

## CC[C@@H]1[C@H](F)C(=O)N[C@@H]1COc1nccc2cc(C(N)=O)c(OC)cc12 [ZIMLOVISERTIB]
[4]
  % of inhibition: -5.8%

## O=C(NOC[C@H](O)CO)c1ccc(F)c(F)c1Nc1ccc(I)cc1F
[5]
  % of control: 100%

## Cn1cc(-n2cnc3c(NCc4nc5cc(Cl)c(Cl)cc5[nH]4)nc(N4CCOCC4)nc32)cn1
[6]
  % of control: -10.1%
